Measurements as given in US20260306460A1, “COMPOSITION FOR REMOVING AND INHIBITING SENESCENT CELLS, AND USES THEREOF” (LIFECEUTIX CO., LTD., priority 2023, published 2026).
Read-outs that look alike come from different tables or passages of the source.

Legend:
Type in all cases: in vivo, mouse
[1] = tested on: naturally aged C57BL6J mice; assay: Joint aging (arthritis marker mRNA) in naturally aged mice, Example 21-12, Table 27
Experimental: (§1) 22-month-old female C57BL6J mice (KRIBB Laboratory Animal Resource Center) were acclimated to the experimental environment for one week, after which the aged mice were randomly assigned to experimental and control groups. Eight-week-old, non-aged mice served as controls. LX-403 was mixed in a 10% ethanol solution of PEG400 and administered orally at a concentration of 25 mg/kg daily for 21 days, or administered to the skin, joints, or eyes at a concentration of 1 μM. LX-1801 was mixed in distilled water with 4% DMSO, 30% PEG300, and 5% Tween80 and administered to the skin, joints, or eyes at a concentration of 0.4 μM daily for 21 days. LX-2001 was mixed in PBS and administered to the skin, joints, or eyes at a concentration of […] daily for 21 days. LX-2002 was mixed in distilled water with 4% DMSO, 30% PEG300, and 5% Tween80 and administered to the skin, joints, or eyes at a concentration of 2 μM daily for 21 days. […] LX-2005 was mixed in distilled water with 4% DMSO, 30% PEG300, and 5% Tween80 and administered to the skin, joints, or eyes at a concentration of 90 μM daily for 21 days. LX-2007 was mixed in distilled water with 4% DMSO, 30% PEG300, and 5% Tween80 and administered to the skin, joints, or eyes at a concentration of 90 μM daily for 21 days. […] LX-3002 was mixed in distilled water with 4% DMSO, 30% PEG300, and 5% Tween80 and administered orally at a concentration of 10 mg/kg daily for 21 days. […] LX-5411 was mixed in 5% PBS and administered orally at a concentration of 10 mg/kg daily for 21 days or administered to the skin, joints, or eyes at a concentration of 3 μM. LX-5701 was mixed in PBS and administered orally at a concentration of 360 mg/kg daily for 21 days. LX-6807 was mixed in saline and administered intraperitoneally at a concentration of 1 mg/kg daily for 21 days. LX-2101 or LX-2102 was mixed in PBS solution with 5% DMSO and administered intraperitoneally at a concentration of 20 mg/kg or 10 mg/kg, respectively, daily for 21 days. The control group received only the solution in the same volume. After the end of drug administration, the methods described in each example below were performed.
RNA was extracted from joint tissue as described in Example 7-2 of WO2023-085787 A1, and qRT-PCR was performed using the synthesized cDNA. […] To analyze joint pain due to joint aging, hotplate analysis was performed. Specifically, thermal pain thresholds were measured using a hot plate. After acclimating mice to a temperature of 30° C. for 10 minutes, the time required for hind paw licking or jumping responses to occur at 55° C. was measured. To prevent tissue damage, the response was measured for less than 30 seconds, and the average value was used from five measurements.

[2] = tested on: doxorubicin-induced aged C57BL6J mice; assay: Hair loss area in doxorubicin-aged mice, Example 22-11, Table 40
Experimental: Eight-week-old male C57BL6J mice (KRIBB Laboratory Animal Resource Center) were acclimated to the experimental environment for one week. Afterwards, the anticancer agent doxorubicin was administered intraperitoneally at a concentration of 10 mg/kg, inducing aging for more than 10 days. The aging-induced mice were randomly assigned to experimental and control groups. LX-403 was mixed with a 10% ethanol solution of PEG400 and administered orally at a concentration of 25 mg/kg or intradermally at a concentration of 1 μM for 21 days. LX-1801 was mixed in distilled water with 4% DMSO, 30% PEG300, and 5% Tween80 and administered intradermally at a concentration of 0.4 μM daily for 21 days. LX-2001 was mixed in PBS and administered intradermally at a concentration of 2 μM daily for 21 days. LX-2002 was mixed in distilled water with 4% DMSO, 30% PEG300, and 5% Tween80 and administered intradermally at a concentration of 2 μM daily for 21 days. […] LX-2005 was mixed in distilled water with 4% DMSO, 30% PEG300, and 5% Tween80 and administered intradermally at a concentration of 90 μM daily for 21 days. LX-2007 was mixed in distilled water with 4% DMSO, 30% PEG300, and 5% Tween80 and administered intradermally at a concentration of 90 μM daily for 21 days. […] LX-3002 was mixed in distilled water with 4% DMSO, 30% PEG300, and 5% Tween80 and administered orally at a concentration of 10 mg/kg daily for 21 days. […] LX-5411 was mixed in 5% phosphate-buffered saline (PBS) and administered orally at a concentration of 10 mg/kg daily for 21 days or intradermally at a concentration of 3 μM. LX-5701 was mixed in PBS and administered orally at a concentration of 360 mg/kg daily for 21 days. LX-6807 was mixed in saline and administered intraperitoneally at a concentration of 1 mg/kg daily for 21 days. The control group received only the solution in the same volume. After the end of drug administration, the methods described in each example below were performed.
Alopecia is one of the most troubling side effects of chemotherapy, for which there is currently no treatment. Hair loss in mice induced to age by the anticancer drug was quantified using imaging software such as ImageJ (NIH) from digital photographs taken using a fixed camera position and magnification.

[3] = tested on: naturally aged C57BL6J mice; assay: Cataract incidence in naturally aged mice, Example 21-15, Table 30; conditions: orally twice a week, 360 mg/kg, until death, untreated aged 83
Experimental: as §1
Cataracts, which occur with age, are a disease that causes visual impairment due to clouding of the lens and are a major cause of blindness. The mice of Example 21-1 were treated with the test compound mixed in PBS orally twice a week at a concentration of 360 mg/kg. Cataract development was assessed biweekly until death.

[4] = tested on: naturally aged C57BL6J mice
[5] = tested on: naturally aged C57BL6J mice; assay: Frailty (open field, wire hanging, grip strength, muscle and fat tissue) in naturally aged mice, Example 21-7, Table 23; conditions: for Fat Mass (g): inguinal and epididymal fat, untreated aged 0.82 (±0.19); for Muscle Mass (g): quadriceps and gastrocnemius, untreated aged 0.64 (±0.06); for Grip Sterenght Test Strength (%) / Open Field Test Time in Center (%) / Wire Hanging Test Time (%): untreated aged = 100%
Experimental: as §1
To analyze frailty due to aging in mice, an activity test (open field test), an endurance test (wire hanging test), and a muscle strength and grip strength test (grip strength test) were performed using the same method as in Example 7-7 of WO2023-085787 A1. The table below quantitatively represents the results of activity, endurance, muscle strength, and grip strength, which are criteria for assessing frailty, under conditions in which aging was induced and the test compound was not administered or administered. The amount of each evaluation after aging was calculated as 100% and compared with the amount of each evaluation after treatment with the drug of the present invention.

[6] = doxorubicin-induced aged mice, untreated 100 (±15.4)
[7] = after 7 days, 6 mm punch dorsal skin wounds, naturally aged mice, untreated aged 3.2 (±0.4)

| Compound | Col2a1 mRNA (fold) [1] | Relative area of hair loss [2, 6] | Cataract incidence (%) [3] | Wound size (mm) [4, 7] | Relative area of hair loss [2] | Fat Mass (g) [5] | Muscle Mass (g) [5] | Grip Sterenght Test Strength (%) [5] | Open Field Test Time in Center (%) [5] | Wire Hanging Test Time (%) [5] | wound/damage healing improvement ([4]; mouse, in vivo) | Wound size (mm) ([4]; mouse, in vivo) |
| --- | --- | --- | --- | --- | --- | --- | --- | --- | --- | --- | --- | --- |
| O=C(C(C[N+](=O)[O-])=NO)N1CCN(C(c2ccc(Cl)cc2)c2ccc(Cl)cc2)CC1 [LX-403] | 2.9 (±0.2) fold | 76 (±5.5) % | 57% | 1.9 (±0.2) mm | – | – | – | – | – | – | – | – |
| C[C@@H]1CC[C@@]23C[C@H](O)C(=O)[C@@]2(O)[C@]1(C)[C@H](OC(=O)CCl)C[C@@H](C1=CCn2c(=O)n(-c4ccccc4)c(=O)n2C1)[C@@H]3C [LX-1801, (2S,3aS,4S,5R,7R,8S,8aS,11R)-7-(1,3-Dioxo-2-phenyl-2,3,5,8-tetrahydro-1H-[1,2,4]triazolo[1,2-a]pyridazin-6-yl)-2,3a-dihydroxy-4,8,11-trimethyl-3-oxooctahydro-1H-4,8a-propanoazulen-5-yl 2-Chloroacetate] | 2.6 (±0.2) fold | 78 (±5.4) % | 68% | 2.5 (±0.6) mm | – | – | – | – | – | – | – | – |
| C[C@H]1[C@H](C)CC[C@]2(C(=O)O)CC[C@]3(C)C(=CC[C@@H]4[C@@]5(C)CC[C@H](O)C(C)(C)[C@@H]5CC[C@]43C)[C@H]12 [LX-2001, Ursolic acid] | 1.8 (±0.2) fold | 80 (±6.9) % | 75% | 2.5 (±0.5) mm | – | – | – | – | – | – | – | – |
| C[C@H]1[C@H](C)CC[C@]2(C(=O)O)CC[C@]3(C)C(=CC[C@@H]4[C@@]5(C)C[C@@H](O)[C@H](O)C(C)(C)[C@@H]5CC[C@]43C)[C@H]12 [LX-2002, Corosolic acid] | 1.7 (±0.3) fold | 83 (±10.4) % | 71% | 2.7 (±0.4) mm | – | – | – | – | – | – | – | – |
| CC1(C)CC[C@]2(C(=O)O)CC[C@]3(C)C(=CC[C@@H]4[C@@]5(C)CC[C@H](O)C(C)(C)[C@@H]5CC[C@]43C)[C@@H]2C1 [LX-2003, Oleanolic acid] | 1.9 (±0.2) fold | 79 (±6.7) % | 69% | 2.6 (±0.6) mm | – | – | – | – | – | – | – | – |
| C=C(C)[C@@H]1CC[C@]2(C(=O)O)CC[C@]3(C)[C@H](CC[C@@H]4[C@@]5(C)CC[C@H](O)C(C)(C)[C@@H]5CC[C@]43C)[C@@H]12 [LX-2005, Betulinic acid] | 2.2 (±0.1) fold | 82 (±4.6) % | 72% | 2.9 (±0.3) mm | – | – | – | – | – | – | – | – |
| CC1(C)C=C2[C@H]3CC[C@@H]4[C@@]5(C)CCC(=O)C(C)(C)[C@@H]5CC[C@@]4(C)[C@]3(C)CC[C@@]2(C(=O)O)CC1 [LX-2007, Moronic acid] | 1.6 (±0.2) fold | 86 (±2.9) % | 80% | 3.0 (±0.2) mm | – | – | – | – | – | – | – | – |
| CC1(C)CC[C@]2(NC(=O)C(C)(F)F)CC[C@]3(C)[C@H](C(=O)C=C4[C@@]5(C)C=C(C#N)C(=O)C(C)(C)[C@@H]5CC[C@]43C)[C@@H]2C1 [LX-2101, Omaveloxolone] | 1.9 (±0.2) fold | – | 77% | 1.9 (±0.3) mm | 79 (±3.9) % | 1.15 (±0.09) g | 0.72 (±0.05) g | 121 (±4.1) % | 145 (±10.2) % | 117 (±3.8) % | – | – |
| COC(=O)[C@]12CCC(C)(C)C[C@H]1[C@H]1C(=O)C=C3[C@@]4(C)C=C(C#N)C(=O)C(C)(C)[C@@H]4CC[C@@]3(C)[C@]1(C)CC2 [LX-2102, Bardoxolone methyl] | – | – | – | – | – | 0.97 (±0.16) g | 0.76 (±0.05) g | 116 (±9.2) % | 109 (±8.6) % | 120 (±7.5) % | damage treatment and recovery | – |
| CCCC\C=C/C=C/C=C\CCCCCCCC(=O)O [LX-2707, Punicic acid] | – | – | 48% | 2.7 (±0.3) mm | – | 0.98 (±0.20) g | 0.67 (±0.07) g | 117 (±3.6) % | 198 (±19.4) % | 135 (±13.3) % | – | – |
| COC(=O)[C@H]1Cc2c([nH]c3ccccc23)[C@H](c2ccc(S(C)(=O)=O)cc2)N1C(=O)CCl [LX-5401, methyl (1S,3R)-2-(2-chloroacetyl)-1-(4-(methylsulfonyl)phenyl)-2,3,4,9-tetrahydro-1H-pyrido[3,4-b]indole-3-carboxylate] | – | – | 69% | 2.3 (±0.3) mm | – | – | – | – | – | – | – | – |
| C#CC(=O)N1[C@@H](CCCC)Cc2cc(OC)ccc2[C@@H]1c1ccc(NC23CC4CC(CC(C4)C2)C3)cc1 [LX-5411] | 3.3 (±0.3) fold | 77 (±4.1) % | 61% | 1.6 (±0.1) mm | – | – | – | – | – | – | – | – |
| O=C1C2CCN(CC2)C1CNC(=O)C(F)(F)F (stereo not drawn) [LX-5701] | 2.7 (±0.3) fold | 67 (±17.8) % | 64% | – | – | 0.88 (±0.1) g | 0.66 (±0.1) g | 119 (±3.8) % | 259 (±38.6) % | 141 (±7.3) % | – | 1.9 (±0.2) mm |
| Tocofersolan [LX-3001] | – | – | 73% | 2.4 (±0.1) mm | – | 0.95 (±0.12) g | 0.70 (±0.1) g | 115 (±4.7) % | 187 (±12.9) % | 126 (±11.4) % | – | – |
